Data published in US8354398B2, “Substituted isoxazole compounds” (Bristol-Myers Squibb Company, priority 2009, dated 2013).
pEC50, pIC50: −log10 of the molar value.

Key:
[1] = test system: circulating lymphocytes; assay: Blood Lymphocyte Reduction Assay (BLR) in rats; format: in vivo; details: Lewis rats, oral, vs vehicle group
Procedure: Lewis rats or BALB/c mice were dosed orally with test article (as a solution or suspension in the vehicle) or vehicle alone (polyethylene glycol 300, “PEG300”). Blood was drawn at 4 hr and 24 h by retro-orbital bleeding. Blood lymphocyte counts were determined on an ADVIA® 120 Hematology Analyzer (Siemens Healthcare Diagnostics). The results were measured as a reduction in the percentage of circulating lymphocytes as compared to the vehicle treated group at the 4 hr and 24 hr measurement. The results represent the average results of all animals within each treatment group (n=3-4).
Examples 1 and 2 were tested in the Blood Lymphocyte Reduction assay (BLR) described hereinabove and the results are shown in Table D for rats and Table E for mice.

[2] = test system: adjuvant induced arthritis (paw swelling); assay: Rat Adjuvant Induced Arthritis Assay (AA); format: in vivo, Lewis rats; details: for Paw Swelling (mL) on Day 20, Mean: male Lewis rats, vehicle mean 1.53
Procedure: Male Lewis rats (150-175 g; Harlan, n=8 treatment group) were immunized at the base of the tail with […] of 10 mg/ml freshly ground Mycobacterium butyricum (Difco Laboratories) in incomplete Freund's adjuvant (sigma) Animals were dosed once daily with the test article (as a solution or suspension in the vehicle) or vehicle alone (polyethylene glycol 300, “PEG300”) starting from the day of immunization. The volumes of their hind paws were measured in a water displacement plethysmometer (Ugo Basile, Italy). The baseline paw measurements were taken before onset of the disease (between day 7 to day 10). The paw measurements were then taken three times a week until the end of the study on day 20. All procedures involving animals were reviewed and approved by the Institutional Animal Care Use Committee.

[3] = test system: experimental autoimmune encephalomyelitis (clinical score); assay: Mouse Experimental Autoimmune Encephalomyelitis Assay (EAE); format: in vivo, C57BL/6 mice; details: for Clinical Score on day 21, Mean: C57BL/6 female mice, vehicle mean 2.79
[4] = molecular target: T1, S1P1 (Homo sapiens, UniProt P21453); assay: S1P1 Binding Assay (33P-S1P ligand competition, membranes from CHO cells); parameters: expressed in transfected cells; host or cells: CHO cells; details: membranes of CHO cells expressing human S1P1; 0.03 nM 33P-S1P; 60 min room temperature
T1 sequence (P21453 whole entry): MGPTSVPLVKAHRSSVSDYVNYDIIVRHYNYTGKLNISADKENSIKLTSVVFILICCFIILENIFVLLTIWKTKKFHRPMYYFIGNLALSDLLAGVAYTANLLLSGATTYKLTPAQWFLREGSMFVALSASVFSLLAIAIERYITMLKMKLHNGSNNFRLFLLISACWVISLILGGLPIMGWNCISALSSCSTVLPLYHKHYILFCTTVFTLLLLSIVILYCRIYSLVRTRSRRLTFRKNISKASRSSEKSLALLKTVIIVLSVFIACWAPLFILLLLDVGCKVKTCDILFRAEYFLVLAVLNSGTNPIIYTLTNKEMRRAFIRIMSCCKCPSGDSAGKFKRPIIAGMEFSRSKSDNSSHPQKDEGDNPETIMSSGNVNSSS
Outline: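 Membranes from CHO cells expressing human S1P1 (2 μg/well) were incubated with 0.03 nM ^33P-S1P and test compound for 60 min at room temperature. Bound radioactivity was collected on GF/B filters and counted. IC50 is the concentration reducing specific radioligand binding by 50%.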

[5] = molecular target: S1P3 (Homo sapiens, UniProt Q99500); assay: Method B: Receptor [35S] GTPγS SPA Binding Assay, membranes from S1P3 transfected CHO cells; format: biochemical; parameters: expressed in transfected cells; host or cells: CHO cells; details: S1P3 transfected CHO cell membranes, NC = a satisfactory dose response curve was not obtained
Sequence of S1P3 (Q99500 whole entry, species assumed): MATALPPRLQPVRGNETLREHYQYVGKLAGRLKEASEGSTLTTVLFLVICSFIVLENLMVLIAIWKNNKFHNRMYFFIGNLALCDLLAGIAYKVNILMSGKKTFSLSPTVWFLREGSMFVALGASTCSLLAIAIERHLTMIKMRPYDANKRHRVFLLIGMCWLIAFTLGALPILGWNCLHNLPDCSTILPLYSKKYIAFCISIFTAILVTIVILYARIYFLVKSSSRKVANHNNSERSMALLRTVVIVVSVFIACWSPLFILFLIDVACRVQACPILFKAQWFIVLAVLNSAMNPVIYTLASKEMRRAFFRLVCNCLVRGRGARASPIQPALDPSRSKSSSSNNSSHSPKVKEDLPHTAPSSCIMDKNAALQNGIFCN
Procedure: Membranes prepared from S1P1 or S1P3 transfected CHO cells (2 μg protein) were incubated in 96-well white plates (CORNING® 3693) with test compounds diluted in DMSO, in 50 μl of reaction mixture containing 7.5 μl WGA-PVT beads (20 mg/ml), and 5 μM GDP, 20 mM HEPES pH 7.4, 100 mM NaCl, 1 mM EDTA, 5 mM MgCl2, 10 μg/ml saponin, 0.1% BSA, and 1 μM leupeptin. The assay was initiated with the addition of 25 μl of 0.2 nM [^35S]-GTPγS (1250 Ci/mmol; NEN) in assay buffer. After 90 min incubation at room temperature, spin the plate at 1000 rpm for 5 min. The bound radionuclides were measured at TOPCOUNT®, expressed as % response relative to S1P (1 μM) activation. Data was analyzed using the four parameter logistic equation in Excel. The four parameters in the equation, Y=A+((B−A)/(1+((EC50/X)^D))), are described as following: A is the Y value (agonist activity) at the bottom plateau; B is the Y value at the top plateau; EC50 is the X value (agonist concentration) when the response is halfway between bottom and top; D is Hill coefficient. Curves were not generated for compounds having Ymax values were below 50%.
Compounds of the present invention and Comparative Compound A were tested in the Receptor [^35S] GTPγS Binding Assays (Method A) and Receptor [35S] In some instances, the value is an average of multiple experiments where N is the number of experiments conducted that provided satisfactory dose response curves. When more than one batch of an example was tested, the value presented is from a batch which allowed a comparison of GTPγS S1P1 and GTPγS S1P3 in which the most number of experiments were performed. Preferably, the same batch was examined in Method A and Method B. Data was not averaged across different batches of an example compound.

[6] = molecular target: T1, S1P1; assay: Method B: Receptor [35S] GTPγS SPA Binding Assay, membranes from S1P1 transfected CHO cells; format: biochemical; parameters: expressed in transfected cells; host or cells: S1P1/CHO cells
Outline: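 CHO-cell membranes (2 μg protein) with test compound, 5 μM GDP, saponin and WGA-PVT SPA beads, pH 7.4; reaction started with 0.2 nM [35S]-GTPγS, 90 min at room temperature. Bound counts expressed as % of 1 μM S1P response, EC50 from four-parameter logistic fit; no curves where Ymax below 50%.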

With `O=C(O)C1CN(Cc2ccc(-c3noc(-c4onc(-c5ccccc5)c4C(F)(F)F)n3)cc2)C1` [Example 1, 1-(4-(5-(3-Phenyl-4-(trifluoromethyl)isoxazol-5-yl)-1,2,4-oxadiazol-3-yl)benzyl)azetidine-3-carboxylic acid] the “% reduction in lymphocytes at 4 hr.” value ([1]; 0.03 mg/kg) was 75%, the “% reduction in lymphocytes at 24 hr.” value ([1]; 0.03 mg/kg) was 45% and the “% reduction in lymphocytes at 4 hr.” value ([1]; 0.3 mg/kg) was 82%. The “% reduction in lymphocytes at 24 hr.” value ([1]; 0.3 mg/kg) was 73%, the “disease progression as measured by paw swelling” value ([2]; Lewis rat, prophylactic oral dosing) was “inhibits disease progression” and the “Paw Swelling (mL) on Day 20, Mean” value ([2]; 0.03 mg/kg once daily from day of immunization) was 1.39 mL. For the same compound, the “Paw Swelling (mL) on Day 20, Mean” value ([2]; 0.1 mg/kg once daily from day of immunization) was 0.55 mL, the “Paw Swelling (mL) on Day 20, Mean” value ([2]; 0.5 mg/kg once daily from day of immunization) was 0.23 mL and the “Paw Swelling (mL) on Day 20, Mean” value ([2]; 3.0 mg/kg once daily from day of immunization) was 0.29 mL. For the same compound, the “Clinical Score on day 21, Mean” value ([3]; 0.02 mg/kg once daily from 1 day after immunization) was 1.75, the “Clinical Score on day 21, Mean” value ([3]; 0.2 mg/kg once daily from 1 day after immunization) was 1.13 and the “Clinical Score on day 21, Mean” value ([3]; 2.0 mg/kg once daily from 1 day after immunization) was 1.15. The “disease progression as determined by the clinical scores” value ([3]; C57Bl/6 mice, prophylactic oral dosing) was “inhibits disease progression”, the pIC50 [4] was 10.04 and the pEC50 [5] was 6.29. For the same compound, the pEC50 ([6]; Method B SPA, S1P1 transfected CHO cell membranes, NC = a satisfactory dose response curve was not obtained) was 10.32 and the “GTPγS S1P3/S1P1 (Method B)” value ([6]; ratio of GTPγS S1P3 EC50 to GTPγS S1P1 EC50, Method B) was 11,000.
